# Numbers after ± are expanded uncertainties.
# Conditions: Liquid, Ebulliometric method (Recirculating still)
SMILES,vapor or sublimation pressure (110.01 K),vapor or sublimation pressure (112.98 K),vapor or sublimation pressure (114.99 K),vapor or sublimation pressure (115.07 K),vapor or sublimation pressure (117 K),vapor or sublimation pressure (118.99 K),vapor or sublimation pressure (120.11 K),vapor or sublimation pressure (120.96 K),vapor or sublimation pressure (123.01 K),vapor or sublimation pressure (130.15 K),vapor or sublimation pressure (135.09 K)
C [methane],88.2 ± 1.4 kPa,112.74 ± 1.4 kPa,132.11 ± 1.4 kPa,134.08 ± 1.3 kPa,153.92 ± 1.4 kPa,178.11 ± 1.5 kPa,194.65 ± 1.3 kPa,204.78 ± 1.5 kPa,235.61 ± 1.6 kPa,374.77 ± 1.4 kPa,496.11 ± 1.4 kPa
N#N [nitrogen],1466.7 ± 6 kPa,1735.2 ± 7 kPa,1936 ± 7.8 kPa,,2153.3 ± 8.7 kPa,2385.7 ± 9.6 kPa,,2633.9 ± 11 kPa,2913 ± 12 kPa,,

# Reference: the NIST ThermoML archive (doi:10.1021/je201299u)
